Laboratory results as given in patent US9193984B2, “Method for detecting interactions between two and more biological macromolecules” (Korea Basic Science Institute, priority 2008, dated 2015).

Target: T1, first construct (TMD-mRFP) in CHO-k1 cells (Homo sapiens, UniProt Q05655, K378R/Y313F)
T1 construct: expressed in transfected cells; host or cells: CHO-k1
Assay: Translocation of first construct (TMD-mRFP) toward the cell membrane depending on PMA concentration
Assay type: cell-based, Cricetulus griseus
Description: In order to optimize the translocation characteristic of the translocation module, the first construct vector (pTMD-mRFP-C3) shown in FIG. 5 was used to determine the optimum concentration of PMA (phorbol-12-myristate-13-acetate), which was used as an external stimulation. Detailed experimental procedures were the same as in FIG. 5.
A cover slip containing the cells in which the first construct and second construct vectors had been introduced was fixed to a perfusion chamber and mounted on the object stage of a confocal laser fluorescence microscope (Carl Zeiss LSM510). Images of the construct vectors were taken before and after external stimulation (treatment with 1 μM PMA).
Translocation efficiency of the first construct using the pTMD-mRFP-C3 vector depending on the concentration of external stimulant PMA was measured as follows. The expression vector of the first construct was transformed into CHO-k1 cells and overexpressed. After 18 hours of culturing, PMA was treated at 1, 5, 10, 20, 40, 50, 80 and 100 nM and 1 and 5 μM.

T1 sequence (Q05655 whole entry Y313F/K378R): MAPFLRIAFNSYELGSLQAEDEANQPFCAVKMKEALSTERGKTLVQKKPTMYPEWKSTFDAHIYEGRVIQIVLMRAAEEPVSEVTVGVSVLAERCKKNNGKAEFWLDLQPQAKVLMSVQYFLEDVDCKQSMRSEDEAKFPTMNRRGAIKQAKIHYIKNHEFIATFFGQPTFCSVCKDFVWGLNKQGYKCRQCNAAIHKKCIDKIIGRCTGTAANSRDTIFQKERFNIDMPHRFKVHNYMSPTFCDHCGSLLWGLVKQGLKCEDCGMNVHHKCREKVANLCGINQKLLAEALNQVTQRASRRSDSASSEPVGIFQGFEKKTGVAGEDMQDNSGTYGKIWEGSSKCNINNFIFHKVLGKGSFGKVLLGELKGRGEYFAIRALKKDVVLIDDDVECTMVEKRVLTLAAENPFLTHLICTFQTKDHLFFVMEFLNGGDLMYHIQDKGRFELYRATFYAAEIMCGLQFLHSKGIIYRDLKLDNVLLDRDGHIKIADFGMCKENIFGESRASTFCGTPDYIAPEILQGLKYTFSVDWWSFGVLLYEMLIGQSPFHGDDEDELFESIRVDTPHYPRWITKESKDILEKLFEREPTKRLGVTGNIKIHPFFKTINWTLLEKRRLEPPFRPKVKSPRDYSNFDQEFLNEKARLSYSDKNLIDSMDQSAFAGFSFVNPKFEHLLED

Structure (SMILES): CCCCCCCCCCCCCC(=O)O[C@@H]1[C@@H](C)[C@@]2(O)[C@@H](C=C(CO)C[C@]3(O)C(=O)C(C)=C[C@@H]23)[C@@H]2C(C)(C)[C@]12OC(C)=O [PMA, phorbol-12-myristate-13-acetate]
- cells with translocation of first construct toward the cell membrane (PMA 50 nM, CHO-k1, 200 cells counted): ≥ 90%
- movement of red fluorescence toward the cell membrane (PMA 100 nM or higher): increased
